pIC50: −log10 of the molar value. Values joined by “and” are separate entries in the source; they are usually repeats but may differ in a detail not shown here. Equal entries are not always repeated. Some results are limits rather than exact numbers.

One test relates to NCI-H358 (K-Ras G12C). Briefly: CellTiter-Glo cell viability assay, NCI-H358. The class given is cell-based, human. The settings on record: Homo sapiens, NCI-H358, Table 5; read-out: H358 Cell Viability assay data (K-Ras G12C, IC50). In a few lines: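 Compounds dispensed directly onto plated NCI-H358 cells; plates equilibrated to room temperature on day 5 before luminescence read-out. Signal normalized to mean DMSO control (%) and fitted by four-parameter logistic.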
(In general: ATP-based viability assays read luminescence as a measure of living cells.)
In general, pIC50 refers to the IC50 on a negative log10 scale, so that one unit is a factor of ten. As for `CO[C@@H](C)c1ncc(N2CCN(C)CC2)cc1-c1c2c3cc(ccc3n1CC(F)(F)F)-c1cccc(c1)C[C@H](NC(=O)[C@H](C(C)C)N(C)C(=O)C1(F)CCN(C(=O)C#CC(C)(C)N(C)C)CC1)C(=O)N1CCC[C@H](N1)C(=O)OCC(C)(C)C2` [Compound A542, 1-(4-(dimethylamino)-4-methylpent-2-ynoyl)-4-fluoro-N-((2S)-1-(((6^1S,4S)-1^2-(2-((S)-1-methoxyethyl)-5-(4-methylpiperazin-1-yl)pyridin-3-yl)-10,10-dimethyl-5,7-dioxo-1^1-(2,2,2-trifluoroethyl)-6^1,6^2,6^3,6^4,6^5,6^6-hexahydro-1^1H-8-oxa-1(5,3)-indola-6(1,3)-pyridazina-2(1,3)-benzenacycloundecaphane-4-yl)amino)-3-methyl-1-oxobutan-2-yl)-N-methylpiperidine-4-carboxamide], the pIC50 is above 8.00.

The same test, now with this note: Homo sapiens, NCI-H358, read-out: H358 Cell Viability assay data (K-Ras G12C, IC50, uM), Table 5.
The term IC50 denotes the midpoint of a concentration-inhibition curve. As for `CO[C@@H](COC1CN(C(=O)C#CC(C)(C)N(C)C)C1)C(=O)N[C@H]1Cc2cccc(c2)-c2ccc3c(c2)c(c(-c2cccnc2[C@H](C)OC)n3CC(F)(F)F)CC(C)(C)COC(=O)[C@@H]2CCCN(N2)C1=O` [Compound A556], the concentration for half-maximal inhibition (IC50) is below 0.01 µM.
On the same count and under the same terms, the figure for `C=CC(=O)N1CCOC2CCN(C(=O)N(C)C(C(=O)NC3Cc4nc(cs4)-c4ccc5c(c4)c(c(-c4cccnc4C(C)OC)n5CC)CC(C)(C)COC(=O)C4CCCN(N4)C3=O)C(C)C)CC21` (stereo not shown) [Compound A596] is below 0.01 µM; for `C=CC(=O)N1CC[C@H](C(=O)N(C)[C@H](C(=O)N[C@H]2Cc3cc(CF)cc(c3)-c3ccc4c(c3)c(c(-c3cccnc3[C@H](C)OC)n4CC(F)(F)F)CC(C)(C)COC(=O)[C@@H]3CCCN(N3)C2=O)C(C)C)C1` [Compound A659] it is below 0.01 µM.

Still in this test, the particulars now being: Table 5; read-out: H358 Cell Viability assay data (K-Ras G12C, IC50).
With `CCn1c(-c2cccnc2C(C)OC)c2c3cc(ccc31)-c1cccc(c1)C[C@H](NC(=O)[C@H](C(C)C)N(C)C(=O)N1CCC13CN(C(=O)C#CC(C)(C)N(C)C)C3)C(=O)N1CCC[C@H](N1)C(=O)OCC(C)(C)C2` (stereo partly shown) [Compound A717], the negative logarithm of the IC50 (pIC50) is 7.00 to 8.00.
As to `C=CC(=O)N1CC[C@H](C(=O)N(C)[C@H](C(=O)N[C@H]2Cc3cc(O)cc(c3)-c3ccc4c(c3)c(c(-c3ccc(CN5CC[C@@H](O)C5)cc3)n4CC)CC(C)(C)COC(=O)[C@@H]3CCCN(N3)C2=O)C(C)C)C1` [Examples A1], the negative logarithm of the IC50 (pIC50) was 6.00 to 7.00.
Take `C=CC(=O)N1CC[C@H](C(=O)N(C)[C@H](C(=O)N[C@H]2Cc3cc(O)cc(c3)-c3ccc4c(c3)c(c(-c3ccc(CN5CCCC5)cc3)n4CC)CC(C)(C)COC(=O)[C@@H]3CCCN(N3)C2=O)C(C)C)C1` [Examples A10]: the pIC50 was 7.00 to 8.00.
With “(2R)-2-(((1-(4-(dimethylamino)-4-methylpent-2-ynoyl)azetidin-3-yl)oxy)methyl)-N-((6^3S,4S)-1^1-ethyl-1^2-(2-((S)-1-methoxyethyl)pyridin-3-yl)-10,10-dimethyl-5,7-dioxo-6^1,6^2,6^3,6^4,6^5,6^6-hexahydro-1^1H-8-oxa-1(5,3)-indola-6(1,3)-pyridazina-2(1,3)-benzenacycloundecaphane-4-yl)-3-methylbutanamide [Compound A316]”, the pIC50 is above 8.00.
As for “(2S)-N-[(7S,13S)-21-ethyl-20-[2-(methoxymethyl)pyridin-3-yl]-17,17-dimethyl-8,14-dioxo-15-oxa-4-thia-9,21,27,28-tetraazapentacyclo[17.5.2.1^2,^5.1^9,^13.0^22,^26]octacosa-1(25),2,5(28),19,22(26),23-hexaen-7-yl]-3-methyl-2-{N-methyl-1-[(3S)-1-(prop-2-enoyl)pyrrolidin-3-yl]formamido}butanamide [Compound A194]”, the pIC50 was > 8.00 and 7.00 to 8.00.
Still for that read-out and setting: to “(2S)-N-[(8S,14S,20P)-22-ethyl-21-{4-[(1S)-1-methoxyethyl]pyridin-3-yl}-18,18-dimethyl-9,15-dioxo-16-oxa-10,22,28-triazapentacyclo[18.5.2.1^2,^6.1^10,^14.0^23,^27]nonacosa-1(26),2,4,6(29),20,23(27),24-heptaen-8-yl]-3-methyl-2-{N-methyl-1-[(3S)-1-(prop-2-enoyl)pyrrolidin-3-yl]formamido}butanamide [Compound A115]” belongs 7.00 to 8.00.

The values are drawn from patent EP4806900A2, “RAS INHIBITORS” (Revolution Medicines, Inc., priority 2019, dated 2021).
